Measured values as given in EP0742215A1, “Cillianon, antibiotic from penicillin spe., and chemical derivatives thereof, method for their preparation and application” (HOECHST AKTIENGESELLSCHAFT, priority 1995, dated 1996).
pIC50: −log10 of the molar value.

How the values were obtained:
[1] = Stability (physicochemical properties, Table 1)
From the text: (§1) Die physikalisch-chemisch sowie spektroskopischen Eigenschaften von Cillianon lassen sich wie folgt zusammenfassen: Tabelle 1

[2] = Solubility (physicochemical properties, Table 1); conditions: in Methanol, Acetonitril, Chloroform und Benzol
From the text: as §1

[3] = biological target: T1, humanen IL-4 Rezeptor (huIL-4R/Fc) (Homo sapiens, UniProt P24394); experiment: Cell-free huIL-4 binding assay (IL-4 receptor test, ELISA with receptor/Fc fusion protein and biotinylated ligand); conditions: huIL-4R/Fc 500 ng/ml; biotinylated huIL-4 100 ng/ml; 1 h room temperature; PBSA with 5 % DMSO; Abbildung 3
T1 construct: die aus der extrazellulären Region von normalerweise membranständigen Rezeptoren bestehen
T1 sequence (P24394 26-232 limits assumed): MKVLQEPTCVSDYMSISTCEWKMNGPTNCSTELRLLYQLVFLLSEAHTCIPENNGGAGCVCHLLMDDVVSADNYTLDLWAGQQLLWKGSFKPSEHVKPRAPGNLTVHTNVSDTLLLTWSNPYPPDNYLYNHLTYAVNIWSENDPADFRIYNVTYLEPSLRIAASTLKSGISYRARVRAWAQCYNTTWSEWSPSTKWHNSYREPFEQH
From the text: Aus der EP 488 170 A1 sind zellfreie Bindungsteste bekannt. Für ihre Durchführung werden rekombinante chimäre Proteine verwendet, die aus der extrazellulären Region von normalerweise membranständigen Rezeptoren bestehen, an deren Carboxyterminus die Fc-Region einer schweren Immunglobulinkette bestehend aus Hinge-, CH2- und CH3-Domäne fusioniert wurde. Diese sogenannten Rezeptor/Fc-Fusionsproteine können unter Erhalt der spezifischen Rezeptorbindungsaktivität an Festphasen gebunden werden, die beispielsweise mit monoklonalen Antikörpern gerichtet gegen den Fc-Teil vorbeschichtet wurden. Als Festphase wurden für dieses Beispiel ®Nunc Typ B ELISA-Platten verwendet. Rezeptor/Fc-Fusionsproteine gelöst in PBS enthaltend 10 mg/ml BSA (PBSA) wurden an diese vorbehandelten Platten gebunden (huIL-4R/Fc: 500 ng/ml; muIL-4R/Fc: 250 ng/ml; huIL-1R/Fc: 125 ng/ml; 1 h bei Raumtemperatur). Nach Waschen wurden die Peptide beziehungsweise die jeweiligen spezifischen unmarkierten Liganden (huIL-4R/Fc: huIL-4; muIL-4R/Fc: muIL-4; huIL-1R/Fc:huIL-1ra) in variierenden Konzentrationen und danach die spezifischen Liganden in biotinylierender Form in einer festen Konzentration zugegeben (100 ng/ml). Die Inkubation erfolgte 1 h bei Raumtemperatur in PBSA enthaltend 5 % DMSO. Nach Waschen erfolgte eine Inkubation mit Streptavidin/Peroxidase (Amersham, 1:2000 in PBSA) für 20 min bei Raumtemperatur. […]

With Cc1cc(O)c2c3c(c(O)c4c(c13)OC(C)C4(C)C)C(=O)C(O)(O)C2=O (centres unmarked) [Cillianon] the Stabilität ([1]; im sauren Milieu) was “stabil”, the Stabilität ([1]; in wässrigem Alkali) was “unbeständig” and the Stabilität ([1]; unter Lichteinwirkung) was “unbeständig”. The Löslichkeit [2] was “lösliche” and the pIC50 [3] was 4.25.
